Laboratory results published in US20230067910A1, “NOVEL COMPOUNDS FOR THE DIAGNOSIS, TREATMENT AND PREVENTION OF DISEASES ASSOCIATED WITH THE AGGREGATION OF ALPHA-SYNUCLEIN” (MODAG GMBH, priority 2019, published 2023).
Like-named read-outs stand apart in the source and are kept apart here.

Tests used:
[1] = In vivo biodistribution of [11C]-labeled compounds, small animal PET; details: [11C]-labeled compound, intravenous tail vein, mice; for half-life: mouse, brain, read-out: Clearance half-life (brain)
Experimental: [^11C]-labeled compound 1 and compound 2, respectively, were injected intravenously in the tail vein of mice. Mice were then imaged in a small animal PET instrument. For both compounds, a good blood-brain-barrier penetration with SUV values >1.5 was observed.

[2] = molecular target: T1, aggregated alpha-synuclein (Homo sapiens, UniProt P37840); assay: Saturation binding assay, protocol 2a, alpha-synuclein fibrils; details: for Selectivity versus Abeta and tau46 fibrils: saturation binding to alpha-synuclein vs Abeta and tau46 fibrils
T1 construct: made in house; host or cells: E. coli
Experimental: Alpha-synuclein and tau46 were purified from E. coli according to established protocols (Nuscher B, et al., J. Biol. Chem., 2004; 279(21):21966-75), Aβ1-42 was obtained from rPeptide, Watkinsville, Ga., USA. Fibrils were prepared by aggregation of recombinant protein via constant agitation. In detail, 70 μM of alpha-synuclein mixed with 100 mM NaCl in 50 mM Tris, pH 7.0+0.02% NaN3 were incubated at 1,400 rpm, 37° C. for 96 h. 10 μM of tau46 were incubated with 0.03 mg/ml heparin in 50 mM Tris, pH=7.0 at 1,000 rpm, 37° C. for 72 h. Aβ1-42 was solved in 20 mM NaPi, pH=8.0+0.2 mM EDTA+0.02% NaN3 (Deeg A A, et al., Biochim. Biophys. Acta, 2015; 1850(9): 1884-90; Goedert M, et al. Nature, 1996; 383(6600): 550-3).
Sonicated αSYN (0.04 μM) or tau46 (0.4 μM) or Aβ1-42 (6 μM) fibrils diluted in PBS were incubated with decreasing concentrations of [^3H]-labeled compound (48 nM or 24 nM-[…]) in 50 mM Tris-base, 10% ethanol, 0.05% Tween20, pH 7.4. To determine non-specific binding, the respective unlabeled compound (400 nM) was added to a duplicate set of binding reactions.
Assay plates were incubated under agitation at 37° C. for 2 h, covered by plastic foil (Resealable tape, PerkinElmer, Waltham, Mass., USA). Prior to harvesting, a filter (Printed filtermat B, PerkinElmer, Waltham, Mass., USA) was incubated with 5 mg/mL polyethylenimine (PEI, Poly(ethyleneimine) solution, Sigma Aldrich Chemie GmbH, Taufkirchen, Germany) at 4° C. for 30 min. After incubation, bound and free ligands were separated by vacuum filtration using a harvester (Filtermate harvester, PerkinElmer, Waltham, Mass., USA). The filter was washed three times with buffer cooled to 4° C. and subsequently dried in the microwave oven for 2 min at medium power. Melt-on scintillator sheets (MeltiLex™ B/HS, PerkinElmer, Waltham, Mass., USA) were molten into the filter using a heating plate set to 120° C. After solidifying at room temperature, the filter was sealed in a plastic bag (Sample bag for MicroBeta®, PerkinElmer, Waltham, Mass., USA). Accumulation of tritium was counted in a liquid scintillation counter (Wallac MicroBeta® TriLux, 1450 LSC & Luminescence Counter, PerkinElmer, Waltham, Mass., USA) immediately. Radioactivity was plotted against the increasing tritium-labeled compound or cold compound concentrations. Data points were fitted using nonlinear regression analysis in GraphPad Prism (GraphPad Software, Inc., Version 7.03, La Jolla, Calif., USA).
The fibril-binding saturation assay provides KD values. This assay is performed with directly radioactively labeled compounds (e.g. ^3H labeling). The saturation binding assays were performed using as target structures fibrillar aggregates produced from recombinant human alpha-synuclein, Aβ1-42, and tau46, respectively.

[3] = system: H4 cells overexpressing alpha-synuclein hemi-Venus fusion constructs (V1S+SV2); assay: Cellular model of aggregated alpha-synuclein-dependent toxicity, V1S+SV2 H4 cells; format: cell-based; details: 10 μM compound, 100 μM FeCl3, 0.75% DMSO, 48 h; for inhibition at 10 µM: read-out: Change in fraction of condensed nuclei (rel. to DMSO control) [%]
Experimental: (§1) To identify potential therapeutically useful effects, compounds were tested in two cellular models of aggregated alpha-synuclein-dependent toxicity in H4 cells. These cellular models allow for the inducible overexpression of alpha-synuclein hemi-Venus fusion constructs (V1S+SV2) or full-length alpha-synuclein (the model is described in detail in: Bartels M, Weckbecker D, Kuhn P H, Ryazanov S, Leonov A, Griesinger C, Lichtenthaler S F, Bötzel K, Giese A: Iron-mediated aggregation and toxicity in a novel neuronal cell culture model with inducible alpha-synuclein expression, Sci. Rep. 2019 Jun. 24; 9(1):9100). Moreover, addition of DMSO and FeCl3 promotes the aggregation of alpha-synuclein which is associated with an increase in cytotoxicity. The cell culture assay uses these effects by determining the change in the number of cells and the change in the percentage of condensed nuclei, which is indicative of apoptosis, in order to obtain information on which compounds show the most promising effects and thus might be therapeutically useful.
(§2) In these experiments, cells were incubated with 100 μM FeCl3 and 0.75% DMSO in the presence of 10 μM anle138c as a positive control, compounds 1 to 19 (10 μM), or DMSO as a negative control. After 48 h, the cells were imaged with an OPERA high-throughput imaging system and analyzed using Acapella software (Perkin Elmer). […] A reduction in the fraction of condensed nuclei (in the absence of a strong reduction in cell number) is indicative of a beneficial therapeutic effect.

[4] = molecular target: T2, alpha-synuclein (sonicated fibrils) (Homo sapiens, UniProt P37840); assay: Modified competition binding assay, protocol 3b, reference ligand [3H]-compound 1; details: reference ligand [3H]-compound 1 (1 nM)
T2 construct: made in house; host or cells: E. coli
Experimental: Fibrils were prepared by aggregation of recombinant protein via constant agitation. In detail, 70 μM of alpha-synuclein mixed with 100 mM NaCl in 50 mM Tris, pH 7.0+0.02% NaN3 were incubated at 1,400 rpm, 37° C. for 96 h. 10 μM of tau46 were incubated with 0.03 mg/ml heparin in 50 mM Tris, pH=7.0 at 1,000 rpm, 37° C. for 72 h.
Plates were incubated for 4.5 hours at RT covered by removable sealing tape (PerkinElmer, Waltham, Mass., USA).
Filtration and readout were performed as described for saturation binding assays.
The fibril competition assay provides Ki values. […] This assay is suitable for a screening of non-radioactive ligands.

[5] = system: H4 cells overexpressing full-length alpha-synuclein; assay: Cellular model of aggregated alpha-synuclein-dependent toxicity, full-length alpha-synuclein H4 cells; format: cell-based; details: 10 μM compound, 100 μM FeCl3, 0.75% DMSO, 48 h; for inhibition at 10 µM: read-out: Change in fraction of condensed nuclei (rel. to DMSO control) [%]
Experimental: as §1, §2

[6] = fibril-binding saturation assay, summary statement, read-out: KD values, alpha-synuclein fibrils
[7] = saturation assay protocol 2a, [3H]-labeled compound, read-out: KD [nM] for aggregated alpha-synuclein

Washout from the brain [1]	half-life [1]	Kd [2, 6]	Kd [2, 7]	Selectivity versus Abeta and tau46 fibrils [2]	Ki ([4]; Table 6 comparison series, read-out: Ki (nM), sonicated alpha-synuclein fibrils)	Ki ([4]; Table 4b, read-out: Ki (nM) alpha-synuclein (sonicated fibrils))	Compound	Change in cell number (rel. to DMSO control) [%] [3]	inhibition at 10 µM [3]	Change in cell number (rel. to DMSO control) [%] [5]	inhibition at 10 µM [5]
rapid washout from the brain	12 min	< 10 nM	< 2 nM	good to excellent selectivity	0.4 nM	–	CN(C)c1ccc(-c2cc(-c3ccnc(Br)c3)[nH]n2)cc1 [Compound 1, 4-[3-(4-dimethylamino-phenyl)-1H-pyrazol-5-yl]-2-bromopyridine]	−21.2%	11.7%	−27.3%	65.4%
–	–	< 10 nM	7 nM	–	–	–	Fc1cc(-c2cc(-c3ccc4c(c3)OCO4)n[nH]2)ccn1 [Compound 12, 4-[3-(1,3-benzodioxol-5-yl)-1H-pyrazol-5-yl]-2-fluoropyridine]	−22.2%	-24.9%	−9.8%	-28.4%
rapid washout from the brain	9 min	< 10 nM	< 1 nM	good to excellent selectivity	–	0.3 nM	CNc1ccc(-c2cc(-c3ccnc(Br)c3)[nH]n2)cc1 [Compound 2, 4-[5-(2-bromopyridin-4-yl)-1H-pyrazol-3-yl]-N-methylaniline]	−25.8%	49.4%	−44.2%	79%
